# Test results from ChEMBL document CHEMBL4219215, “Discovery of {4-[4,9-bis(ethyloxy)-1-oxo-1,3-dihydro-2H-benzo[f]isoindol-2-yl]-2-fluorophenyl}acetic acid (GSK726701A), a novel EP4 receptor partial agonist for the treatment of pain” (Bioorg Med Chem Lett, 2018).
# Tests used:
# [1] = molecular target: Prostaglandin E2 receptor EP2 subtype (Homo sapiens) (UniProt P43116); test: Agonist activity at EP2 receptor (unknown origin) assessed as induction of receptor activation at 1 uM; format: functional
# Homo sapiens [2] = organism: Homo sapiens; test: Selectivity index, ratio of agonist activity at IP receptor (unknown origin) to pEC50 for partial agonist activity at human EP4 receptor expressed in HEK293-AEQ17 cells; format: cell-based
# [3] = Protein binding in dog plasma; format: ADME, cell-free, Canis lupus familiaris; details: read-out: PPB (converted)
# [4] = Ratio of drug level in brain to blood in rat at 1 mg/kg, po; format: ADME, organism-based
# Cytochrome P450 2C19 = Cytochrome P450 2C19 (Homo sapiens, UniProt P33261); test: Inhibition of human recombinant CYP2C19; format: ADME; details: human, recombinant enzyme
# [5] = Total drug level in blood of orally dosed rat model of Freund's complete adjuvant-induced acute inflammatory pain assessed as reduction in reversal of hypersensitivity; format: ADME, organism-based; details: in vivo, po, read-out: Drug uptake
# [6] = molecular target: Prostacyclin receptor (Homo sapiens) (UniProt P43119); test: Agonist activity at IP receptor (unknown origin) assessed as induction of receptor activation at 1 uM; format: functional
# [7] = Intrinsic clearance in human liver microsomes; format: ADME, microsome
# Cytochrome P450 3A4 = Cytochrome P450 3A4 (Homo sapiens, UniProt P08684); test: Inhibition of human recombinant CYP3A4 using 7BQ substrate; format: ADME; details: human, recombinant enzyme
# Homo sapiens [8] = organism: Homo sapiens; test: Selectivity index, ratio of pIC50 for EP3 receptor (unknown origin) to pEC50 for partial agonist activity at human EP4 receptor expressed in HEK293-AEQ17 cells; format: cell-based
# [9] = Oral bioavailability in rat at 1 mg/kg; format: ADME, organism-based; details: in vivo
# [10] = Half life in rat at 1 mg/kg, po; format: ADME, organism-based; details: in vivo
# [11] = Protein binding in rat plasma; format: ADME, cell-free; details: read-out: PPB (converted)
# [12] = molecular target: T1, Prostaglandin E2 receptor EP1 subtype (Homo sapiens, UniProt P34995); test: Activity at EP1 receptor (unknown origin)
# T1 sequence (P34995 whole entry): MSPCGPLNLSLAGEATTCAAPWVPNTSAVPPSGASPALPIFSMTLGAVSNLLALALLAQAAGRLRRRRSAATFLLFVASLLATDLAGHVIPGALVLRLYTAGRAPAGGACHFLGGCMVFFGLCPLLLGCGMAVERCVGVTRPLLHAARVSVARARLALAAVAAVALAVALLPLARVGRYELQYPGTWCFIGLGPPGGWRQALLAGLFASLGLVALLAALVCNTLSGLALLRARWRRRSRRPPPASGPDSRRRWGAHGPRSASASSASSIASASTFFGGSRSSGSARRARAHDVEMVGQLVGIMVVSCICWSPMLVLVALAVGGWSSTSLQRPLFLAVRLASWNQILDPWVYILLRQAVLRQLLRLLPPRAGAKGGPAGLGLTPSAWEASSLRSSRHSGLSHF
# [13] = molecular target: T2, Prostaglandin D2 receptor (Homo sapiens, UniProt Q13258); test: Activity at DP1 receptor (unknown origin)
# T2 sequence (Q13258 whole entry): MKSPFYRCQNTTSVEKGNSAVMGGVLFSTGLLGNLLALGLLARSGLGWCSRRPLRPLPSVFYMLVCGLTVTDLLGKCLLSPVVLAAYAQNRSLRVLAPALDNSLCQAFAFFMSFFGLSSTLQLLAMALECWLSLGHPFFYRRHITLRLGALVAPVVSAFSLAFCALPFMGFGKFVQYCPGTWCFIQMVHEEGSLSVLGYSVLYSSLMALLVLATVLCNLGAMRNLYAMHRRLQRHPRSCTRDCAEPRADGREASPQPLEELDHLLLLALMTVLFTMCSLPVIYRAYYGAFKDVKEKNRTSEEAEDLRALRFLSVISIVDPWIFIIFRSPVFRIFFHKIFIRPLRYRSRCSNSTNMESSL
# Homo sapiens [14] = organism: Homo sapiens; test: Selectivity index, ratio of agonist activity at EP2 receptor (unknown origin) to pEC50 for partial agonist activity at human EP4 receptor expressed in HEK293-AEQ17 cells; format: cell-based
# Canis familiaris = test: Blood clearance in orally dosed dog; format: ADME, organism-based, Canis lupus familiaris; details: in vivo, po
# Prostacyclin receptor (Homo sapiens), sequence (P43119 whole entry): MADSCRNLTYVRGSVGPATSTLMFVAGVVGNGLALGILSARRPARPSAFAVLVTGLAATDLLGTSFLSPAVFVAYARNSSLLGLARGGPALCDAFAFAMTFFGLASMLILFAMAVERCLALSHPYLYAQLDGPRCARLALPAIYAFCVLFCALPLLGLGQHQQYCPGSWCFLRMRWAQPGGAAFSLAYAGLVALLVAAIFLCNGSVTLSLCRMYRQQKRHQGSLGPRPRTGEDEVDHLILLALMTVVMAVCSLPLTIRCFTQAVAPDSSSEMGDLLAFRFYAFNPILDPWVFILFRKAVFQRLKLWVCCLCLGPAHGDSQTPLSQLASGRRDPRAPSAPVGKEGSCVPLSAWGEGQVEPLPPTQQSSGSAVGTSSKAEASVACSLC
# Cytochrome P450 2C19, sequence (P33261 whole entry): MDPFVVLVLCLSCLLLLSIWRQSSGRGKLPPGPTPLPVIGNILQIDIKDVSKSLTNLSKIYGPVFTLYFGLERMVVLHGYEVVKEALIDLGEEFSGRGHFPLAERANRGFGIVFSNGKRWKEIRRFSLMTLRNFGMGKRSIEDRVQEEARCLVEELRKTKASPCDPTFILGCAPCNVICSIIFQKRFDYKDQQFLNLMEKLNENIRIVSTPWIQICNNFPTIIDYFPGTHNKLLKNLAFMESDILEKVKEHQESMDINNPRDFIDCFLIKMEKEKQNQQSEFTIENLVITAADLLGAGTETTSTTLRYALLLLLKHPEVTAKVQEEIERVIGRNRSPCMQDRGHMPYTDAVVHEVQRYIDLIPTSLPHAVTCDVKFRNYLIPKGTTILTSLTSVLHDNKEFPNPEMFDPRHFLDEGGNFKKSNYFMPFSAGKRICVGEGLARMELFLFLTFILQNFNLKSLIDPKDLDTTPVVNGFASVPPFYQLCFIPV
# Prostaglandin E2 receptor EP2 subtype (Homo sapiens), sequence (P43116 whole entry): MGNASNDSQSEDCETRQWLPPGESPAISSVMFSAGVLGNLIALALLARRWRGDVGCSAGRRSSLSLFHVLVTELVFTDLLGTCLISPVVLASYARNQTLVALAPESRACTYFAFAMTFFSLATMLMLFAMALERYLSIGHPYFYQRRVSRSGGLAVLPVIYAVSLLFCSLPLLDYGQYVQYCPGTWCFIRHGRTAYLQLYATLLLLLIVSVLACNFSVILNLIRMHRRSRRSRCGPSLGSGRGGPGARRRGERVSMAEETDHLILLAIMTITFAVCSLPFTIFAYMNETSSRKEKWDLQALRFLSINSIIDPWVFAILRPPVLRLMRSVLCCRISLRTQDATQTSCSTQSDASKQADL
# Cytochrome P450 3A4, sequence (P08684 whole entry): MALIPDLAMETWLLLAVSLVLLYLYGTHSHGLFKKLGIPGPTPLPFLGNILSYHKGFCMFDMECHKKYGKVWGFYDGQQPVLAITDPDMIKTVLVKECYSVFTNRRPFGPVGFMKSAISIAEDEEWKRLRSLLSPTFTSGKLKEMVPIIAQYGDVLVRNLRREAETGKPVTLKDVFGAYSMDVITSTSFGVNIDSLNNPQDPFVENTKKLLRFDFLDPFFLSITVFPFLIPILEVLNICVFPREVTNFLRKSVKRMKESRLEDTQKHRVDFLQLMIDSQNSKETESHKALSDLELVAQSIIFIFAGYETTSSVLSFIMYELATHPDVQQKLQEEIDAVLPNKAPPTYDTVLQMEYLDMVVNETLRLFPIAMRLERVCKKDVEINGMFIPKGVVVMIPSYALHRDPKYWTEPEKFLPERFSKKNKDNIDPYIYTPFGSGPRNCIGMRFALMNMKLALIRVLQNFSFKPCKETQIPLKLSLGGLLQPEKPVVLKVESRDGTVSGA
compound,measurement,setting,value
CCOc1c2c(c(OCC)c3ccccc13)C(=O)N(c1ccc(CC(=O)O)c(F)c1)C2,Activity,[1],14%
same,Selectivity ratio,Homo sapiens [2],> 100
same,fraction unbound,[3],0.009
same,Kp,[4],< 0.05
same,INH,Cytochrome P450 2C19,> 100 µM
same,concentration,[5],600 nM
same,Activity,[6],11%
same,CLH,[7],< 1 mL/min/g
same,INH,Cytochrome P450 3A4,> 100 µM
same,Selectivity ratio,Homo sapiens [8],> 100
same,bioavailability,[9],112%
same,half-life,[10],360 min
same,fraction unbound,[11],0.002
same,IC50,[12],> 10 µM
same,IC50,[13],> 31.6 µM
same,Selectivity ratio,Homo sapiens [14],> 100
same,clearance,Canis familiaris,4 mL/min/kg
